Test results as given in ChEMBL document CHEMBL3046249, “Synthesis and antifungal activity of cinnamic acid esters” (1996).

test system: Pythium; test: Antimicrobial activity against Pythium sp. assessed as growth inhibition at 100 ppm by agar dilution method; assay type: functional; conditions: read-out: GI

First: Cc1ccc(C(C)C)c(OC(=O)/C=C/c2ccccc2)c1
Second: Cc1ccc(C(C)C)c(OC(=O)/C=C/c2ccc(O)cc2)c1
The inhibition of growth at 100 ppm of the first is higher: 54% for the first, 33% for the second.

Going from CCCOC(=O)/C=C/c1ccc(O)c(OC)c1 to CCCCOC(=O)/C=C/c1ccc(O)c(OC)c1, the inhibition of growth at 100 ppm falls from 9% to 0%.

First: COc1cc(/C=C/C(=O)OC(C)C)ccc1O
Second: COC(=O)/C=C/c1ccc(O)c(OC)c1
The inhibition of growth at 100 ppm of the first is higher: 18% for the first, 0% for the second.

Going from CCCOC(=O)/C=C/c1ccc(O)cc1 to CCCCOC(=O)/C=C/c1ccc(O)cc1, the inhibition of growth at 100 ppm falls from 91% to 71%.

Compared with O=C(/C=C/c1ccc(O)cc1)Oc1ccccc1, COC(=O)/C=C/c1ccc(O)cc1 [METHYL P-HYDROXYCINNAMATE] is lower in inhibition of growth at 100 ppm: 80% for the first, 54% for the second.

First: CC(C)=CCCC(C)CCOC(=O)/C=C/c1ccc(O)cc1 (stereo not given)
Second: CC(C)=CCCC(C)CCOC(=O)/C=C/c1ccccc1 (stereo not given)
The inhibition of growth at 100 ppm of the first is higher: 63% for the first, 0% for the second.

Going from Cc1ccc(OC(=O)/C=C/c2ccc(O)cc2)c(C(C)C)c1 to COc1cc(/C=C/C(=O)Oc2ccc(C)cc2C(C)C)ccc1O, the inhibition of growth at 100 ppm rises from 36% to 49%.

Going from COc1cc(/C=C/C(=O)Oc2cc(C)ccc2C(C)C)ccc1O to C=CCc1ccc(OC(=O)/C=C/c2ccc(O)c(OC)c2)c(OC)c1, the inhibition of growth at 100 ppm rises from 9% to 31%.

Compared with C=CCc1ccc(OC(=O)/C=C/c2ccccc2)c(OC)c1, COC(=O)/C=C/c1ccccc1 [E-METHYL CINNAMATE] is higher in inhibition of growth at 100 ppm: 28% for the first, 66% for the second.

First: O=C(O)/C=C/c1ccccc1 [CINNAMIC ACID]
Second: O=C(O)/C=C/c1ccc(O)cc1 [COUMARIC ACID]
The inhibition of growth at 100 ppm of the first is higher: 97% for the first, 10% for the second.

Compared with CCOC(=O)/C=C/c1ccc(O)c(OC)c1 [ETHYL FERULATE], COc1cc(/C=C/C(=O)O)ccc1O [FERULATE] is lower in inhibition of growth at 100 ppm: 50% for the first, 48% for the second.

Going from CCOC(=O)/C=C/c1ccc(O)cc1 [ETHYL P-COUMARATE] to CC(C)OC(=O)/C=C/c1ccc(O)cc1 [ISOPROPYL 3-(4-HYDROXYPHENYL)ACRYLATE], the inhibition of growth at 100 ppm rises from 87% to 98%.

Going from CCCCCCCOC(=O)/C=C/c1ccccc1 [HEPTYL CINNAMATE] to CCCCCCCCOC(=O)/C=C/c1ccccc1 [OCTYL CINNAMATE], the inhibition of growth at 100 ppm rises from 42% to 56%.

First: CC(C)OP(=O)(OC(C)C)SCc1ccccc1 [IPROBENFOS]
Second: O=C(/C=C/c1ccccc1)OCCc1ccccc1 [PHENETHYL CINNAMATE]
The inhibition of growth at 100 ppm of the first is higher: 89% for the first, 28% for the second.

test system: Athelia rolfsii; test: Antimicrobial activity against Athelia rolfsii assessed as growth inhibition at 100 ppm by agar dilution method; assay type: functional; conditions: Agroathelia rolfsii; read-out: GI

Going from Cc1ccc(C(C)C)c(OC(=O)/C=C/c2ccccc2)c1 to Cc1ccc(C(C)C)c(OC(=O)/C=C/c2ccc(O)cc2)c1, the inhibition of growth at 100 ppm falls from 45% to 31%.

Compared with CCCOC(=O)/C=C/c1ccc(O)c(OC)c1, CCCCOC(=O)/C=C/c1ccc(O)c(OC)c1 is lower in inhibition of growth at 100 ppm: 26% for the first, 0% for the second.

Compared with COc1cc(/C=C/C(=O)OC(C)C)ccc1O, COC(=O)/C=C/c1ccc(O)c(OC)c1 is lower in inhibition of growth at 100 ppm: 38% for the first, 37% for the second.

First: CCCOC(=O)/C=C/c1ccc(O)cc1
Second: CCCCOC(=O)/C=C/c1ccc(O)cc1
The inhibition of growth at 100 ppm of the first is lower: 70% for the first, 81% for the second.

First: O=C(/C=C/c1ccc(O)cc1)Oc1ccccc1
Second: COC(=O)/C=C/c1ccc(O)cc1 [METHYL P-HYDROXYCINNAMATE]
The inhibition of growth at 100 ppm of the first is higher: 53% for the first, 41% for the second.

Compared with CC(C)=CCCC(C)CCOC(=O)/C=C/c1ccc(O)cc1 (stereo not given), CC(C)=CCCC(C)CCOC(=O)/C=C/c1ccccc1 (stereo not given) is lower in inhibition of growth at 100 ppm: 55% for the first, 0% for the second.

First: Cc1ccc(OC(=O)/C=C/c2ccc(O)cc2)c(C(C)C)c1
Second: COc1cc(/C=C/C(=O)Oc2ccc(C)cc2C(C)C)ccc1O
The inhibition of growth at 100 ppm of the first is higher: 38% for the first, 37% for the second.

First: COc1cc(/C=C/C(=O)Oc2cc(C)ccc2C(C)C)ccc1O
Second: C=CCc1ccc(OC(=O)/C=C/c2ccc(O)c(OC)c2)c(OC)c1
The inhibition of growth at 100 ppm of the first is higher: 58% for the first, 38% for the second.

Going from C=CCc1ccc(OC(=O)/C=C/c2ccccc2)c(OC)c1 to COC(=O)/C=C/c1ccccc1 [E-METHYL CINNAMATE], the inhibition of growth at 100 ppm rises from 22% to 53%.

First: O=C(O)/C=C/c1ccccc1 [CINNAMIC ACID]
Second: O=C(O)/C=C/c1ccc(O)cc1 [COUMARIC ACID]
The inhibition of growth at 100 ppm of the first is higher: 100% for the first, 46% for the second.

First: CCOC(=O)/C=C/c1ccc(O)c(OC)c1 [ETHYL FERULATE]
Second: COc1cc(/C=C/C(=O)O)ccc1O [FERULATE]
The inhibition of growth at 100 ppm of the first is lower: 43% for the first, 54% for the second.

Compared with CCOC(=O)/C=C/c1ccc(O)cc1 [ETHYL P-COUMARATE], CC(C)OC(=O)/C=C/c1ccc(O)cc1 [ISOPROPYL 3-(4-HYDROXYPHENYL)ACRYLATE] is higher in inhibition of growth at 100 ppm: 45% for the first, 84% for the second.

First: CCCCCCCOC(=O)/C=C/c1ccccc1 [HEPTYL CINNAMATE]
Second: CCCCCCCCOC(=O)/C=C/c1ccccc1 [OCTYL CINNAMATE]
The inhibition of growth at 100 ppm of the first is lower: 10% for the first, 13% for the second.

Compared with CC(C)OP(=O)(OC(C)C)SCc1ccccc1 [IPROBENFOS], O=C(/C=C/c1ccccc1)OCCc1ccccc1 [PHENETHYL CINNAMATE] is lower in inhibition of growth at 100 ppm: 100% for the first, 22% for the second.

test system: Pythium; test: Antimicrobial activity against Pythium sp. assessed as growth inhibition at 10 ppm by agar dilution method; assay type: functional; conditions: read-out: GI

Compared with CCCOC(=O)/C=C/c1ccc(O)cc1, CCCCOC(=O)/C=C/c1ccc(O)cc1 is higher in inhibition of growth at 10 ppm: 31% for the first, 35% for the second.

Going from O=C(/C=C/c1ccc(O)cc1)Oc1ccccc1 to COC(=O)/C=C/c1ccc(O)cc1 [METHYL P-HYDROXYCINNAMATE], the inhibition of growth at 10 ppm falls from 16% to 0%.

Going from O=C(O)/C=C/c1ccccc1 [CINNAMIC ACID] to CCOC(=O)/C=C/c1ccc(O)cc1 [ETHYL P-COUMARATE], the inhibition of growth at 10 ppm rises from 12% to 29%.

First: CC(C)OP(=O)(OC(C)C)SCc1ccccc1 [IPROBENFOS]
Second: CC(C)OC(=O)/C=C/c1ccc(O)cc1 [ISOPROPYL 3-(4-HYDROXYPHENYL)ACRYLATE]
The inhibition of growth at 10 ppm of the first is higher: 42% for the first, 41% for the second.

test system: Athelia rolfsii; test: Antimicrobial activity against Athelia rolfsii assessed as growth inhibition at 10 ppm by agar dilution method; assay type: functional; conditions: Agroathelia rolfsii; read-out: GI

Going from CCCOC(=O)/C=C/c1ccc(O)cc1 to CCCCOC(=O)/C=C/c1ccc(O)cc1, the inhibition of growth at 10 ppm rises from 9% to 29%.

Compared with O=C(O)/C=C/c1ccccc1 [CINNAMIC ACID], CCOC(=O)/C=C/c1ccc(O)cc1 [ETHYL P-COUMARATE] is lower in inhibition of growth at 10 ppm: 24% for the first, 8% for the second.

First: CC(C)OP(=O)(OC(C)C)SCc1ccccc1 [IPROBENFOS]
Second: CC(C)OC(=O)/C=C/c1ccc(O)cc1 [ISOPROPYL 3-(4-HYDROXYPHENYL)ACRYLATE]
The inhibition of growth at 10 ppm of the first is higher: 69% for the first, 10% for the second.
